This series relates to Spodoptera eridania. The series is described as follows: Southern armyworm (Spodoptera eridania), 2nd instar larvae, on dipped Sieva lima bean foliage. It is filed as in vivo. The settings on record: 300 ppm, observation at 5 days. The protocol: The active compounds were formulated • a. for testing the activity against Aphis gossypii, Myzus persicae, and Aphis fabae, as 50:50 acetone:water solutions amended with 100 ppm Kinetic® (surfactant), • b. for testing the activity against Spodoptera eridania as a 10.000 ppm solution in a mixture of 35% acetone and water, which was diluted with water, if needed,
After the experiments were completed, in each case the lowest concentration was determined at which the compound still caused an 75 to 100% inhibition or mortality in comparison with untreated controls (limit or minimal concentration).
Foliage of two Sieva lima beans plants at the first expanded true-leaf stage that are contained within a single 3.8 cm square plastic pot are dipped into the test solution with agitation for 3 seconds and allowed to dry in a hood. The pot is then placed in a 25.4 cm plastic zipper top bag and infested with ten 2nd instar caterpillars. At 5 days, observations are made of mortality, reduced feeding, or any interference with normal molting.

Take `Cc1cccc(CC(NC2=NCC(C)S2)c2ccccc2)c1` (stereo not shown) [Example 16]: the “mortality in comparison with untreated controls” value is listed as “over 50%”.

The values are drawn from patent US7655600B2, “1-(azolin-2-yl)amino-1,2-diphenylethane compounds for combating insects, arachnids and nematodes” (BASF Aktiengesellschaft, priority 2003, dated 2010).
